This is an account of results in US12492182B2, “Hydroxytriazine compounds and pharmaceutical use thereof” (Japan Tobacco Inc., priority 2015, dated 2025).

One assay has as its target T1, human mPGES-1 (Homo sapiens, UniProt O14684).
T1 construct: made in house; host or cells: Chinese hamster ovary-derived cells (FreeStyle CHO-S), transient transfection of pcDNA3.1(+)/human mPGES-1; microsome fraction
T1 sequence (O14684 1-152): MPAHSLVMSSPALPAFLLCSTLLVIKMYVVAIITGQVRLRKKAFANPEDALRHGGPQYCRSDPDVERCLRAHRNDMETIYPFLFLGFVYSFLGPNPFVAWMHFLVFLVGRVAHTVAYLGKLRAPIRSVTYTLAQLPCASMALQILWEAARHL
The assay is described as follows: Evaluation of human mPGES-1 enzyme inhibitory activity (HTRF measurement of PGE2). The class given is biochemical. As to conditions: IC50 value; microsome fraction of CHO-S cells expressing human mPGES-1, PGH2 substrate, PGE2 by HTRF; read-out: humans mPGES-1 enzyme inhibitory activity. An outline of the steps: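 Enzyme source was a microsome fraction from CHO-S cells transfected with human mPGES-1, diluted to 5 μg/mL protein in reduced GSH (12.5 mmol/L KPB), preincubated with compound for 10 min at room temperature with 2% final DMSO. Reaction started with PGH2 and run 45 seconds at room temperature. PGE2 measured by HTRF.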

The next assay has as its system A549 cell. Description: Evaluation of PGE2 production inhibitory action using A549 cell (IL-1β stimulated). The class given is cell-based, human. As to conditions: Homo sapiens. In outline:
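A549 cells (human lung cancer) in F-12K with 2% FBS were preincubated with test article for 30 min, then stimulated with IL-1β (1 ng/mL final) for 18 hr at 37 °C; 0.5% DMSO final. Supernatant PGE2 was measured by HTRF against a standard curve; inhibition is relative to vehicle and unstimulated blank wells.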

[1] abbreviates: A549, A549 cell, recombinant human IL-1β stimulation, read-out: cell PGE2 production inhibitory activity (IC50 value).
Setting [2] is: A549, 18 h, IC50 value, A549 cell, recombinant IL-1β 1 ng/mL, 18 hr, PGE2 in supernatant, read-out: cell PGE2 production inhibitory activity.

Where two headings read alike, the source gives them in different places.

As to `CCC(CC)(C(=O)NCc1ccc(Cl)c(-c2nc(O)nc(-c3cccc(C(C)(C)C)c3)n2)c1)C(F)F` [Example 117], the IC50 came to 1.6 nM on human mPGES-1 and 4.2 nM in the assay on A549 cell (setting [1]).
For `CCC[C@H](C)Oc1ccc(-c2nc(O)nc(-c3cc(CNC(=O)C(CC)(OC)C(F)(F)F)ccc3Cl)n2)cn1` (single isomer, unassigned) [Example 144] the same measures were 3.9 nM and 1.6 nM.
The corresponding values for `CCC[C@H](C)Oc1ccc(-c2nc(O)nc(-c3cc(CNC(=O)C(C)(C)C(F)(F)F)ccc3Cl)n2)cn1` [Example 86] are 1.8 nM and 2.1 nM.
Turning to `COCC1(C(=O)NCc2ccc(Cl)c(-c3nc(O)nc(-c4cccc(C(C)C)c4)n3)c2)CC1` [Example 13], the IC50 is 21 nM at human mPGES-1 and 1000 nM with A549 cell (setting [2]).
On to `CC(C)(C)c1cccc(-c2nc(O)nc(-c3cc(CNC(=O)C(C)(C(F)(F)F)C(F)(F)F)ccc3Cl)n2)c1` [Example 91], for which the figures for the IC50 at human mPGES-1 and in the assay on A549 cell (setting [1]) were 4.6 nM and 4 nM, respectively.
Regarding `COc1ccc(-c2nc(O)nc(-c3cc(CNC(=O)C4(C(F)(F)F)CCCC4)ccc3Cl)n2)cn1` [Example 29], the results for the IC50 at human mPGES-1 and in the assay on A549 cell (setting [2]) were 0.8 nM and 69 nM, respectively.
As for `CCC(CC)(C(=O)NCc1ccc(Cl)c(-c2nc(O)nc(-c3cccc(C4(C)CC4)c3)n2)c1)C(F)F` [Example 118], the IC50 at human mPGES-1 turned out to be 0.4 nM; in the assay on A549 cell (setting [1]) it was 17 nM.
The corresponding values for `CC1(c2cccc(-c3nc(O)nc(-c4cc(CNC(=O)C5(C(F)F)CCCCCC5)ccc4Cl)n3)c2)CC1` [Example 122] are 1.8 nM and 19 nM.
Consider `CCC(OC)(C(=O)NCc1ccc(Cl)c(-c2nc(O)nc(-c3cccc(C4(C)CC4)c3)n2)c1)C(F)(F)F` (stereo not drawn) [Example 136], for which the IC50 came to 1.2 nM on human mPGES-1 and 10 nM in the assay with A549 cell (setting [1]).
For the molecule `CCCCCCOc1ccc(-c2nc(O)nc(-c3cc(CNC(=O)C(C)(C)CF)ccc3Cl)n2)cn1` [Example 84], the IC50 was 2 nM on human mPGES-1 and 6 nM in the assay with A549 cell (setting [1]).
The corresponding values for `CC(C)c1cccc(-c2nc(O)nc(-c3cc(CNC(=O)C4(CF)CCCC4)ccc3Cl)n2)c1` [Example 92] are 0.5 nM and 90 nM.
Turning to `CCC[C@H](C)Oc1ccc(-c2nc(O)nc(-c3cc(CNC(=O)C4(CF)CCCCCC4)ccc3Cl)n2)cn1` [Example 141], the IC50 at human mPGES-1 was determined as 14 nM; in the assay with A549 cell (setting [1]), 3.8 nM.
On to `CCCC(C)(C)C(=O)NCc1ccc(Cl)c(-c2nc(O)nc(-c3cccc(C(C)C)c3)n2)c1` [Example 7], for which the IC50 on human mPGES-1 stood at 1 nM; in the assay on A549 cell (setting [2]) it was 68 nM.
The corresponding values for `CCCCCOc1ccc(-c2nc(O)nc(-c3cc(CNC(=O)C(C)(C)C(F)(F)F)ccc3Cl)n2)cn1` [Example 21] are 3.9 nM and 2.2 nM.
The corresponding values for `COC(C)(C)c1cccc(-c2nc(O)nc(-c3cc(CNC(=O)C(C)(C)C(F)(F)F)ccc3Cl)n2)c1` [Example 44] are 3.6 nM and 26 nM.
Regarding `CCC[C@H](C)Oc1ccc(-c2nc(O)nc(-c3cc(CNC(=O)C(CC)(CC)OC)ccc3Cl)n2)cn1` [Example 103], the IC50 at human mPGES-1 was 2.4 nM; in the assay with A549 cell (setting [1]) it was 6.5 nM.
For `CC1(c2cccc(-c3nc(O)nc(-c4cc(CNC(=O)C5(C(F)(F)F)CCCC5)ccc4Cl)n3)c2)CC1` [Example 63] the same measures were 1.7 nM and 14 nM.
`COC1(C(=O)NCc2ccc(Cl)c(-c3nc(O)nc(-c4ccc(Cl)c(C(C)C)c4)n3)c2)CCCCC1` [Example 57]: the IC50 on human mPGES-1 was 2.9 nM; in the assay with A549 cell (setting [2]), 4.5 nM.
On to `CC(C)c1cccc(-c2nc(O)nc(-c3cc(CNC(=O)C(C)(C)CC(F)(F)F)ccc3Cl)n2)c1` [Example 76], for which the IC50 was found to be 1.3 nM at human mPGES-1 and 88 nM with A549 cell (setting [1]).
With `COc1ncc(-c2nc(O)nc(-c3cc(CNC(=O)C4(C(F)(F)F)CCCCC4)ccc3Cl)n2)cc1C(C)C` [Example 62], the IC50 on human mPGES-1 is 1 nM; in the assay with A549 cell (setting [1]), 50 nM.
The corresponding values for `CCC(CC)(OC)C(=O)NCc1ccc(Cl)c(-c2nc(O)nc(-c3cccc(C(C)C)c3)n2)c1` [Example 75] are 1.8 nM and 32 nM.
For `COc1ccc(-c2nc(O)nc(-c3cc(CNC(=O)C(C)(C)C(F)(F)F)ccc3Cl)n2)cc1C(C)(C)C` [Example 36], the IC50 at human mPGES-1 is 5.8 nM; in the assay on A549 cell (setting [2]), 10 nM.
Regarding `CC(C)(C)c1cc(-c2nc(O)nc(-c3cc(CNC(=O)C(C)(C)C(F)(F)F)ccc3Cl)n2)ccc1Cl` [Example 87], the IC50 turned out to be 5.2 nM at human mPGES-1 and 2.9 nM with A549 cell (setting [1]).
As for `CCCOc1ccc(-c2nc(O)nc(-c3cc(CNC(=O)C(C)(C)C(F)(F)F)ccc3Cl)n2)cc1C(C)C` [Example 4], the IC50 on human mPGES-1 turned out to be 12 nM; with A549 cell (setting [2]), 2.9 nM.
For the molecule `CC(C)c1cccc(-c2nc(O)nc(-c3cc(CNC(=O)C(C)(C)CF)ccc3Cl)n2)c1` [Example 70], the IC50 on human mPGES-1 came to 1.5 nM; with A549 cell (setting [1]), 56 nM.
For `CC1(c2cccc(-c3nc(O)nc(-c4cc(CNC(=O)C5(CF)CCCCCC5)ccc4Cl)n3)c2)CC1` [Example 113] the same measures were 1.8 nM and 95 nM.
`CO[C@](C)(C(=O)NCc1ccc(Cl)c(-c2nc(O)nc(-c3ccc(Cl)c(C(C)C)c3)n2)c1)C(F)(F)F` [Example 56]: the figures for the IC50 on human mPGES-1 and in the assay on A549 cell (setting [2]) were 0.7 nM and 2.6 nM, respectively.
The corresponding values for `CC(C)c1cc(-c2nc(O)nc(-c3cc(CNC(=O)C(C)(C)C(F)(F)F)ccc3Cl)n2)ccc1Cl` [Example 48, N-{4-chloro-3-[4-(4-chloro-3-isopropylphenyl)-6-hydroxy-1,3,5-triazin-2-yl]benzyl}-3,3,3-trifluoro-2,2-dimethylpropionamide] are 0.5 nM and 2.7 nM.
For `COc1ccc(-c2nc(O)nc(-c3cc(CNC(=O)C4(OC)CCCCC4)ccc3Cl)n2)cn1` [Example 28] the same measures were 1.8 nM and 100 nM.
The corresponding values for `CCOc1ccc(-c2nc(O)nc(-c3cc(CNC(=O)C4(OC)CCCCC4)ccc3Cl)n2)cn1` [Example 31] are 1 nM and 86 nM.
Take `CC(C)(C(=O)NCc1ccc(Cl)c(-c2nc(O)nc(-c3ccc(OC4CC4)nc3)n2)c1)C(F)(F)F` [Example 50]: the IC50 is 0.5 nM on human mPGES-1 and 170 nM with A549 cell (setting [2]).
The corresponding values for `CC(C)c1cc(-c2nc(O)nc(-c3cc(CNC(=O)C4(C(F)(F)F)CCCC4)ccc3Cl)n2)ccc1Cl` [Example 55] are 1.9 nM and 2.6 nM.
For `CCC(C)(C)C(=O)NCc1ccc(Cl)c(-c2nc(O)nc(-c3cccc(C(C)C)c3)n2)c1` [Example 6] the same measures were 0.4 nM and 23 nM.
Regarding `CC1(c2cccc(-c3nc(O)nc(-c4cc(CNC(=O)C(C)(C(F)(F)F)C(F)(F)F)ccc4Cl)n3)c2)CC1` [Example 89], the IC50 on human mPGES-1 worked out at 3.7 nM; in the assay with A549 cell (setting [1]), 2.5 nM.
The corresponding values for `CCC[C@@H](C)Oc1ccc(-c2nc(O)nc(-c3cc(CNC(=O)[C@@](C)(OC)C(F)(F)F)ccc3Cl)n2)cn1` [Example 80] are 2.7 nM and 2 nM.
For `CC(C)c1cccc(-c2nc(O)nc(-c3cc(CNC(=O)C4(CF)CCCCC4)ccc3Cl)n2)c1` [Example 98] the same measures were 1.2 nM and 43 nM.
